Earlier results in patent EP2749553A1, “Process for preparation of enantiomerically pure S-(+)-N, N-dimethyl-a-[2-(naphthalenyloxy)ethyl] benzenemethanamine” (Deva Holding Anonim Sirketi, priority 2012, dated 2014).

Experiments:
[1] = free base
[2] = clinical studies; (S)- versus (R)-enantiomer

## CN(C)[C@@H](CCOc1cccc2ccccc12)c1ccccc1 [Dapoxetine, S-(+)-N, N-dimethyl-a-[2-(naphthalenyloxy)ethyl] benzenemethanamine]
[1]
  in vivo solubility: poor
  water solubility: poor
Free base
  in vivo absorption: low
plasma
  initial plasma half life: about 1 h
Rapid elimination
  initial half-life: 1 to 2 h
[2]
  times more potent than (R)-enantiomer: 3.5 times
